Assay results: US4748165A, “Amidine derivatives” (Imperial Chemical Industries PLC, priority 1981, dated 1988)

Experiments:
conscious mice = test: intravenous toxicity in conscious mice; assay type: in vivo, mouse; settings: intravenously, four conscious mice, one hundred times the dose giving approximate 50% inhibition of gastric secretion in the anaesthetised rat
Experimental: (§1) No overt toxicity or side effects were noted during the rat or dog tests. The compounds N-cyano-5-(4-[2-propylguanidino]pyrimid-2-yl)valeramidino was administered intravenously to groups of two anaesthetised rats and four conscious mice at doses which were respectively ten times and one hundred times the dose, in mg./kg., which produced an approximate 50% inhibition of gastric secretion in the anaesthetised rat.

anaesthetised rats = test: intravenous toxicity in anaesthetised rats; assay type: in vivo; settings: intravenously, two anaesthetised rats, ten times the dose giving approximate 50% inhibition of gastric secretion in the anaesthetised rat
Experimental: as §1

CCCN=C(N)Nc1ccnc(CCCCC(=N)NC#N)n1 [Example 2, N-cyano-5-(4-[2-propylguanidino]pyrimid-2-yl)valeramidine] was tested, and the toxic symptoms (conscious mice) was “No toxic symptoms” and the toxic symptoms (anaesthetised rats) was “No toxic symptoms”.
